# How the values were obtained:
# [1] = system: neutrophiles, leucocytes et myélocytes; experiment: Blood cell counts in mice given i.v. AZT 40 mg/kg plus Muradimétide i.v. or p.o. (Example 2); assay type: in vivo, souris CDI mâles
# Protocol: Le traitement par l'AZT seul induit classiquement une diminution du nombre des leucocytes et des neutrophiles circulants. Cette diminution est suivie par une reconstitution intervenant environ 4 à 7 jours après le début du traitement. Quand le Muradimétide a été administré par voie générale ou par la voie orale après un traitement par 40 mg/kg d'AZT, il n'y a pas de baisse du nombre de cellules et au contraire il y a une multiplication par au moins 1,5 du nombre de leucocytes et un triplement de celui des neutrophiles et cela dès après 4 jours. Les résultats sont représentés dans le tableau 2 ci-dessous.
# Des souris CDI mâles (5 par groupe) ont été injectées avec de l'AZT à la dose de 40 mg par kg aux jours 0 à 3. Le Muradimétide est administré les mêmes jours à la dose de 10 mg par kg en intraveineux ou de 50 mg par kg per os. Les comptages cellulaires sont réalisés au jour 0 (avant le traitement), et aux jours 3 et 4. Tableau 2
# [2] = system: globules rouges et les plaquettes; experiment: Red blood cell and platelet counts after 7 days of oral AZT, Muradimétide or both (Example 3, figures 9 and 10); assay type: in vivo, souris femelles BALB/c; settings: p.o. once daily for 7 days: 100 mg/kg AZT, 50 mg/kg muradimétide, or both simultaneously; counts up to day 10
# Text: La figure 9 représente l'effet du traitement per os de souris BALB/c pendant 7 jours consécutifs avec de l'AZT, du Muradimétide (MDM) ou un mélange de ceux-ci sur la numération plaquettaire.
# La figure 10 représente l'effet du traitement per os de souris BALB/c pendant 7 jours consécutifs avec de l'AZT, du Muradimétide (MDM) ou un mélange de ceux-ci sur le nombre des globules rouges.
# L'effet d'un traitement de 7 jours sur le nombre de globules rouges et de plaquettes est indiqué dans les figures 9 et 10 respectivement. Les numérations sont représentées en pourcentage de celles obtenues au jour 0. Des souris femelles BALB/c (5 par groupe) sont traitées une fois par jour pendant 7 jours consécutifs par 100 mg/kg d'AZT (Δ), 50 mg/kg de muradimétide (D) ou simultanément par 100 mg/kg d'AZT et 50 mg/kg de muradimétide (O). Les comptages de plaquettes ou de globules rouges ont été réalisés au jour 0 et jusqu'à 10 jours suivant le début du traitement. […] La tendance à l'augmentation de leur nombre apparaît entre les jours 4 et 5. En revanche, l'anémie qui pourrait être observée dans les groupes traités pourrait être due aux saignements répétés; néanmoins la vitesse et l'importance de l'anémie est grandement réduite chez les animaux traités avec le mélange des deux produits en comparaison avec celui observé dans le groupe traité par l'AZT seul. […]
# CSH = CSH mobilisation in cyclophosphamide-treated mice after oral AZT, MDM or both (Example 6, figure 13); assay type: in vivo, souris; settings: cyclophosphamide 200 mg/kg s.c. day 0; oral MDM 25 mg/kg alone days 0, 1, 2, 3
# Protocol: La figure 13 représente une expérience similaire sur des souris normales qui ont préalablement reçu un traitement par une drogue cytotoxique : la cyclophosphamide.
# L'effet du traitement ci-dessus pour compenser l'effet cytotoxique des chimiothérapies a été étudié en traitant les souris par le cyclophosphamide.
# Les souris traitées par une simple injection sous-cutanée de cyclophosphamide (dose de 200 mg/kg) au jour 0 ont été ensuite divisées entre 4 groupes et ont reçu oralement, outre de l'eau physiologique (X), de l'AZT à 50 mg/kg (□), du MDM à 25 mg/kg (Δ) ou du mélange de ceux-ci (O). Le traitement oral a été effectué aux jours 0, 1, 2 et 3 et les numérations cellulaires ont été évaluées jusqu'à 14 jours après le commencement du traitement. Les résultats sont indiqués dans la figure 13. Là-encore, il apparaît évident qu'une très forte mobilisation a lieu surtout en présence du mélange d'AZT et de MDM.
# [3] = system: neutrophiles circulants, leucocytes circulants, monocytes circulants, myélocytes circulants; experiment: Comparison of Muradimétide and GM-CSF on circulating cell counts after i.v. AZT (Example 9, figures 4-7); assay type: in vivo, souris Swiss femelles; settings: AZT 40 mg/kg i.v. days 0-3; Muradimétide 25 mg/kg or mGM-CSF 125 µg/kg i.v. 4 h before AZT
# Text: La figure 4 représente les effets comparés du Muradimétide et du rmGM-CSF (recombinant mouse GM-CSF) sur la numération des neutrophiles circulants après administration d'AZT.
# La figure 5 représente la même comparaison sur la numération des leucocytes circulants.
# La figure 6 représente la même comparaison sur la numération de monocytes circulants.
# La figure 7 représente la même comparaison sur la numération des myélocytes circulants.
# Lorsque les souris ayant reçu un traitement par l'AZT sont traitées par du GM-SCF dans les mêmes conditions que celles utilisées pour le Muradimétide, les comptages de leucocytes et de neutrophiles ne présentent pas d'augmentation contrairement à ce qui est observé lorsque la combinaison AZT-Muradimétide est utilisée. Par contre, on observe une augmentation du nombre des monocytes. Les figures 4, 5, 6, et 7 indiquent l'effet d'un traitement des souris avec du Muradimétide ou avec du mGM-CSF sur les changements respectivement dans les neutrophiles circulants, dans les leucocytes circulants ou dans les monocytes circulants ou dans les myélocytes circulants après une administration intraveineuse d'AZT.
# Les souris Swiss femelles ont été traitées par voie intra-veineuse avec 40 mg par kg d'AZT aux jours 0, 1, 2 et 3. […]
# [4] = AZT 40 mg/kg i.v. days 0-3 + Muradimétide i.v. 10mg/kg days 0-3, day 0 (before treatment)
# [5] = AZT 40 mg/kg i.v. days 0-3 + Muradimétide i.v. 10mg/kg days 0-3, day 3
# [6] = AZT 40 mg/kg i.v. days 0-3 + Muradimétide i.v. 10mg/kg days 0-3, day 4
# [7] = AZT 40 mg/kg i.v. days 0-3 + Muradimétide p.o 50 mg/Kg days 0-3, day 0 (before treatment)
# [8] = AZT 40 mg/kg i.v. days 0-3 + Muradimétide p.o 50 mg/Kg days 0-3, day 3
# [9] = AZT 40 mg/kg i.v. days 0-3 + Muradimétide p.o 50 mg/Kg days 0-3, day 4
# [10] = Muradimétide by general or oral route after AZT 40 mg/kg, after 4 days
smiles,measurement,setting,value
"COC(=O)CC[C@@H](NC(=O)[C@H](C)NC(=O)[C@@H](C)O[C@H]1[C@H](O)[C@@H](CO)OC(O)[C@@H]1NC(C)=O)C(=O)OC (stereo partly drawn) [Muradimétide, Nac-Mur-L-Ala-D-Glu-[OCH3]-OCH3]",pourcentage de myélocytes ou de promyélocytes (result in words),"[1]; AZT 40 mg/kg i.v. + Muradimétide, whatever the route of administration",augmentation spectaculaire
same,Leucocytes,[1]; [4],6.0 ± 3.4 x 10^6/ml
same,Myelocytes,[1]; [4],5 ± 7 x 10^4 /ml
same,Neutrophiles,[1]; [4],2.0 ± 1.3 x 10^6 /ml
same,Leucocytes,[1]; [5],5.9 ± 2.9 x 10^6/ml
same,Myelocytes,[1]; [5],145 ± 83 x 10^4 /ml
same,Neutrophiles,[1]; [5],1.5 ± 0.8 x 10^6 /ml
same,Leucocytes,[1]; [6],7.6 ± 1.6 x 10^6/ml
same,Myelocytes,[1]; [6],117 ± 46 x 10^4 /ml
same,Neutrophiles,[1]; [6],4.6 ±1.5 x 10^6 /ml
same,Leucocytes,[1]; [7],4.8 ± 0.4 x 10^6/ml
same,Myelocytes,[1]; [7],14 ± 13 x 10^4 /ml
same,Neutrophiles,[1]; [7],1.4 ± 0.5 x 10^6 /ml
same,Leucocytes,[1]; [8],6.1 ± 1.4 x 10^6/ml
same,Myelocytes,[1]; [8],123 ± 55 x 10^4 /ml
same,Neutrophiles,[1]; [8],1.6 ± 0.5 x 10^6 /ml
same,Leucocytes,[1]; [9],8.1 ± 2.9 x 10^6/ml
same,Myelocytes,[1]; [9],138 ± 59 x 10^4 /ml
same,Neutrophiles,[1]; [9],4.3 ± 2.47 x 10^6 /ml
same,multiplication du nombre de leucocytes,[1]; [10],"≥ 1,5"
same,nombre de neutrophiles (fold change),[1]; [10],triplement
same,toxicité sur les plaquettes,[2],Aucune toxicité
same,numération des neutrophiles circulants,CSH,effet similaire mais nettement moins marqué
same,comptages de leucocytes et de neutrophiles,[3],effet nettement marqué
same,élévation / mobilisation des CSH dans le sang (myélocytes circulants),[3],très forte élévation

# — patent EP0819136B1, “MDP DERIVATIVES AND CONJUGATES HAVING HAEMATOPOIETIC FUNCTION STIMULATING ACTIVITY, AND COMPOSITIONS CONTAINING SAME” (VACSYN S.A., priority 1995, dated 1996)
